These results are taken from patent US10676538B2, “Inhibitors of Staphylococcus pseudintermedius sortase” (priority 2017, dated 2020).

Where two headings read alike, the source gives them in different places.

For test [1], the system named is S. pseudintermedius recombinant SrtA. Briefly: in vitro FRET-based functional assay of recombinant SrtA. It is filed as biochemical, Staphylococcus pseudintermedius. Conditions: compared to buffer controls, averages from three independent experiments. How it is done: Compounds predicted to bind to the active site were identified. Initially, from the 200 highest ranked compounds, twenty were selected. […] The assay to determine the functional activity of recombinant SrtA and its inhibition was performed in 96-well black microtiter plates with clear bottom (Corning, Fisher Scientific, Hampton, N.H.) in a final reaction volume of 200 μl. Fluorescent-quenched bacterial sortase substrate III, Abz/DNP (Abz-LPETG-K(Dnp)-NH2 (GenScript Inc., Piscataway, N.J.) dissolved in isopropanol was used for Km determination. Varying concentrations of the substrate (2.5 μM-200 μM) were incubated at 25° C. with 1 μM of SrtA diluted in assay buffer (50 mM Tris-HCl, 150 mM NaCl, 5 mM CaCl2, and 0.1% Triton X-100, pH 7.5). The increase in fluorescence was measured in a kinetic assay for 20 min at 2 min intervals using a Synergy HTX multimode reader (BioTek, Winooski, Vt.) at wavelengths 320 excitation/420 emission. The initial velocity V0 was determined from the linear portion of the curve and the Km was determined using the Michaelis-Menten equation where V=Vmax[S]/([S]+Km). To measure the effect of inhibitors recombinant SrtA was pre-incubated with varying amounts of the inhibitor at […] and subjected to the same FRET assay.

Test [2] has as its system S. pseudintermedius isolates. Briefly: flow cytometry of cell wall-associated Protein A on bacteria grown with inhibitor (indirect SrtA inhibition). The test is classed as cell-based, Staphylococcus pseudintermedius. Conditions: compared to control without inhibitor. How it is done:
FIG. 4: […] bacterial isolates 08-3228, 08-1661, NA12, NA16 and NA45 were grown in the presence of inhibitor 1847 until exponential log phase. S. pseudintermedius recombinant SrtA inhibition was measured indirectly by determining the density of cell wall associated Protein A (one of the LPXTG proteins targeted by SrtA) using flow cytometry. Protein A was detected with FITC conjugated chicken anti-protein A (Gallus immunotech, Cary, N.C.). The values represent average from three independent experiments with the standard deviations shown at the top of each bar.
Inhibition of SrtA in bacterial cells was measured indirectly by measuring the decrease in the amount of Protein A on the bacterial surface using flow cytometry. Five representative S. pseudintermedius isolates were tested. […] Isolate NA45 was not affected by compound 1847.

Another test relates to Sortase A. As to conditions: 10 μM SrtA, 4 μM inhibitor.

Method for Sortase A: The native enzyme, enzyme-inhibitor complex and appropriate controls were added to the wells of a 48-well plate (total reaction volume 10 μl/well). The reactions contained SYPRO orange (Invitrogen, Carlsbad, Calif.) purchased as a 5,000× stock and used at a 2× final concentration.

As for `O=S(=O)(O)c1ccc(N=Nc2ccccc2)cc1` [Compound 1847], the “inhibition of SrtA” value in test [1] is 50-80%. Further, the “reduction in the density of cell wall-associated Protein A” value is on record as 38.7% in test [2] (isolate 06-3228); 74.3% in test [2] (isolate 08-1661); 42.8% in test [2] (isolate NA12); 89.4% in test [2] (isolate NA16); “not affected” in test [2] (isolate NA45). Also, the “melting temperature of 1847-stabilized Sortase A” value in the test with Sortase A (Srt A in His-Tag elution buffer) was determined as 86.56 °C; in the test with Sortase A (Srt A in PBS), 86.81 °C.

Regarding `C[N+](C)(C)CCSS(C)(=O)=O.[Br-]` [MTSET, reference compound], the “inhibition of SrtA” value in test [1] amounted to 57.5%.

On to `N#Cc1ccc(NS(=O)(=O)Cc2ccccc2)cc1` [STK022091], for which the “inhibition of SrtA” value is reported as “did not have any detectable inhibitory effect” in test [1] and “did not have inhibitory effect” in test [1] (listed as SKT022091).

On to `COc1ccc(N2CCN(S(=O)(=O)Cc3ccc(F)cc3)CC2)cc1` [STL223442], for which the “inhibition of SrtA” value in test [1] amounted to 13.75%.
